Measured values as given in patent publication US20200239530A1, “COMPOUNDS AND METHODS OF MODULATING PROTEIN DEGRADATION” (Vividion Therapeutics, Inc., priority 2017, published 2020).
Read-outs that look alike come from different tables or passages of the source.

Tests used:
Assay in all cases: Cysteine liganding, probe competition
Assay type in all cases: binding
UniProt A0AVI4 = biological target: T1, UniProt A0AVI4 (Homo sapiens, UniProt A0AVI4)
T1 construct: 200 μL of lysate containing 5 mg/ml proteome was treated with 2 μL of 100× compound stock; endogenous in cells
T1 sequence (A0AVI4 1-362): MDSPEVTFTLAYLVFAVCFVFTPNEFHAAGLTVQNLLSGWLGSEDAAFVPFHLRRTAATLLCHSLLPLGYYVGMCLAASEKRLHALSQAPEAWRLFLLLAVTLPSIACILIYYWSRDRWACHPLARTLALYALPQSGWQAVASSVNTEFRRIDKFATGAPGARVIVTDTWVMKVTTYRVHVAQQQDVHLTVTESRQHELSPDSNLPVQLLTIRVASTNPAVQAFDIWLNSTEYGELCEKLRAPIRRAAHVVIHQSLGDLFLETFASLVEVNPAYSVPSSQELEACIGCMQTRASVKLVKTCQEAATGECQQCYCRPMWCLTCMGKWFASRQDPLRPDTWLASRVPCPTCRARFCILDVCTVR
Source text: (§1) The following 96-well sample prep protocol was used for sample preparation.

UniProt Q6ZTA4 = biological target: T2, UniProt Q6ZTA4 (Homo sapiens, UniProt Q6ZTA4)
T2 construct: 200 μL of lysate containing 5 mg/ml proteome was treated with 2 μL of 100× compound stock; endogenous in cells
T2 sequence (Q6ZTA4 whole entry, change not shown): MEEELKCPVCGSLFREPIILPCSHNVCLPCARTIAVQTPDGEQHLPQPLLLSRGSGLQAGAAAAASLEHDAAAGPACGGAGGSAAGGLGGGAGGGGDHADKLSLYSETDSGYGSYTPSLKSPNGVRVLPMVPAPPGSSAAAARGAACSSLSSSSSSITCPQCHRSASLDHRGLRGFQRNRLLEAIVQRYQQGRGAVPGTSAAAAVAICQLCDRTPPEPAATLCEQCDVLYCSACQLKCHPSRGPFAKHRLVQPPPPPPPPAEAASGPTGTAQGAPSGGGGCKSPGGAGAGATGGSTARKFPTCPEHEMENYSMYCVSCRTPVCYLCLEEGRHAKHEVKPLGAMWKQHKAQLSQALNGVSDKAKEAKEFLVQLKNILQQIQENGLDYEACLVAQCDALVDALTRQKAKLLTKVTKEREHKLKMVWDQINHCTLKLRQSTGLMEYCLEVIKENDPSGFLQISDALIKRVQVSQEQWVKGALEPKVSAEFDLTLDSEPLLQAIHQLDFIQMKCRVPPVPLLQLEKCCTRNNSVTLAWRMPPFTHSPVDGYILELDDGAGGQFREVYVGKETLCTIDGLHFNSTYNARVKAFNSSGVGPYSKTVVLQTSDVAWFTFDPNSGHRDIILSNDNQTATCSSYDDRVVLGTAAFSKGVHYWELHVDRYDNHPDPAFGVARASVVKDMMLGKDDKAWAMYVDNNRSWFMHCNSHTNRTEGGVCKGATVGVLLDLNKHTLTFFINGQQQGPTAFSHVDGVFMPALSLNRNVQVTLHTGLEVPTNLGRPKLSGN
Source text: as §1

UniProt Q86WC4 = biological target: T3, UniProt Q86WC4 (Homo sapiens, UniProt Q86WC4)
T3 construct: Cells were resuspended in cold PBS on ice and sonicated with a probe sonicator to achieve lysis; endogenous in cells
T3 sequence (Q86WC4 32-334): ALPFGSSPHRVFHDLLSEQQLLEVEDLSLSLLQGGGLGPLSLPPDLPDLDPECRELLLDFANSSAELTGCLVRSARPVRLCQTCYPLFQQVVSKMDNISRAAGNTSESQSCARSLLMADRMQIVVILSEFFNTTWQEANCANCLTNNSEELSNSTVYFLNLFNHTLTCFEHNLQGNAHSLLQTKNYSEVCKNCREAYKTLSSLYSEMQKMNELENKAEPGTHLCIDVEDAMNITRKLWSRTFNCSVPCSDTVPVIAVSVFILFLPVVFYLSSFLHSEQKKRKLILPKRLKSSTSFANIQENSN
Source text: as §1

UniProt Q8WV44 = biological target: T4, UniProt Q8WV44 (Homo sapiens, UniProt Q8WV44)
T4 construct: 200 μL of lysate containing 5 mg/ml proteome was treated with 2 μL of 100× compound stock; endogenous in cells
T4 sequence (Q8WV44 1-630): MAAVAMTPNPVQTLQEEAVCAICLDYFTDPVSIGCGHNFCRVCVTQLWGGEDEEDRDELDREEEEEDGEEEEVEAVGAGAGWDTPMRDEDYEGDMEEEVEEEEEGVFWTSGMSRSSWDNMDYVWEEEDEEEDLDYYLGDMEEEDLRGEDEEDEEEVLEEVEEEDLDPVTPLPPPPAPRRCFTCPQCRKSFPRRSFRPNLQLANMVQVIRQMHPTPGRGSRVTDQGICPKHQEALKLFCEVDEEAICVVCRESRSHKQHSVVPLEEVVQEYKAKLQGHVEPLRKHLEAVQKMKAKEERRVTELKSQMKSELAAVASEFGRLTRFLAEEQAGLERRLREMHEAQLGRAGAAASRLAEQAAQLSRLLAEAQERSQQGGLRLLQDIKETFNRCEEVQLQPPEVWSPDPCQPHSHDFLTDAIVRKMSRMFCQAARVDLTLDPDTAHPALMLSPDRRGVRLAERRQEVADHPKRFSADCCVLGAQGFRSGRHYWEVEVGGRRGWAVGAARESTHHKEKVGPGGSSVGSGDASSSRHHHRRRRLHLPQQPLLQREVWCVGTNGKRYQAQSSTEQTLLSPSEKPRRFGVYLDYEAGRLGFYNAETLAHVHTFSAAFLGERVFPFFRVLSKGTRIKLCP
Source text: as §1

UniProt Q9Y252 = biological target: T5, UniProt Q9Y252 (Homo sapiens, UniProt Q9Y252); conditions: for inhibition at 500 µM: read-out: percent_inhibition
T5 construct: 200 μL of lysate containing 5 mg/ml proteome was treated with 2 μL of 100× compound stock; endogenous in cells
T5 sequence (Q9Y252 1-685): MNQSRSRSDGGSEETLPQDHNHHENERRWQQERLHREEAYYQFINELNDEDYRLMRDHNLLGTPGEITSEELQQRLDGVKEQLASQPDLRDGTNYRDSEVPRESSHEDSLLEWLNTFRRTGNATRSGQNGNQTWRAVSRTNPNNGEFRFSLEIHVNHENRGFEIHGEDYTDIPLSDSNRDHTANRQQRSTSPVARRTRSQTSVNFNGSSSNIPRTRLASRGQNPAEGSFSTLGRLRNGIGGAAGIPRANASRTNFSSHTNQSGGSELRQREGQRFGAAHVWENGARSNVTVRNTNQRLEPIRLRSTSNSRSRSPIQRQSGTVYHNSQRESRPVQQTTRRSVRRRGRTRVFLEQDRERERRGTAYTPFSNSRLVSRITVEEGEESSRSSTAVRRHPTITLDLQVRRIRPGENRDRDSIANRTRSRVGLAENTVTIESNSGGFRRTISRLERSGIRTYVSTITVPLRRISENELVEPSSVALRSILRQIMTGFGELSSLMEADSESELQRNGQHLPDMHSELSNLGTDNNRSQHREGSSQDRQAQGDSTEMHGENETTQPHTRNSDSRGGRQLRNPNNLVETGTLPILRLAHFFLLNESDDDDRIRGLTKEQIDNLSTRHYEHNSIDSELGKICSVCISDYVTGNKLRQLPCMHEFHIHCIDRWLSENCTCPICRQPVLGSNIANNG
Source text: as §1

[1] = read-out: KB02_500 uM_percent_inhibition
[2] = read-out: KB05_500 uM_percent_inhibition

## COc1ccc2c(c1)CCCN2C(=O)CCl [KB02]
UniProt A0AVI4; read-out: percent_inhibition
  inhibition at 100 µM: 14%
UniProt A0AVI4; 500 uM, read-out: percent_inhibition
  inhibition at 500 µM: 44%
UniProt Q6ZTA4; [1]
  inhibition at 500 µM: 44%
UniProt Q86WC4; [1]
  inhibition at 500 µM: 68%
UniProt Q8WV44; 100 uM, read-out: KB02_100 uM_percent_inhibition
  inhibition at 100 µM: 15%
UniProt Q9Y252
  inhibition at 500 µM: 38%

## C=CC(=O)N(c1ccccc1)c1ccc(Br)cc1 [KB05]
UniProt A0AVI4; read-out: percent_inhibition
  inhibition at 100 µM: 15%
UniProt Q6ZTA4; [2]
  inhibition at 500 µM: 37%
UniProt Q86WC4; [2]
  inhibition at 500 µM: 66%
UniProt Q8WV44; 500 uM, read-out: KB05_500 uM_percent_inhibition
  inhibition at 500 µM: 50%
UniProt Q9Y252
  inhibition at 500 µM: 51%

## O=C(CCl)Nc1cc(C(F)(F)F)cc(C(F)(F)F)c1 [KBO3]
UniProt A0AVI4; 500 uM
  percent_inhibition: 58%
UniProt Q6ZTA4; 500 uM
  KB03_500 uM_percent_inhibition: 6%
UniProt Q86WC4; 500 uM
  KB03_500 uM_percent_inhibition: 58%
UniProt Q8WV44; 100 uM
  KB03_100 uM_percent_inhibition: 31%
UniProt Q9Y252; 500 uM
  percent_inhibition: 9%
